{"source": "paper PMC7479175", "about": "“Selection of Potent Inhibitors of Soluble Epoxide Hydrolase for Usage in Veterinary Medicine” (Frontiers in Veterinary Science, 2020)", "key": {"[1]": {"experiment": "Solubility of inhibitors in different solvents", "format": "physicochemical", "details": "thermodynamic from solid", "description": "The un-dissolved compounds were filtered through a 0.22 μm centrifuge filter at 30 or 40°C and the supernatant further diluted 10-fold with methanol. The concentration of t-TUCB in the samples was determined by LC/MS/MS analysis as previously described ([15])."}, "[2]": {"test_system": "horses with chronic laminitis", "details": "0.1–1 mg/kg i.v., ref [11]–[13]; cited from earlier work"}, "dogs with osteoarthritis": {"test_system": "dogs with osteoarthritis", "set-up": "method as in PMID 31214021", "details": "ref [14]; cited from earlier work"}}, "note": "Where two headings read alike, the source gives them in different places.", "data": [{"smiles": "O=C(Nc1ccc(OC(F)(F)F)cc1)N[C@H]1CC[C@H](Oc2ccc(C(=O)O)cc2)CC1", "note": "[1,728, trans-4-{4-[3-(4-trifluoromethoxy-phenyl)-ureido]-cyclohexyloxy}-benzoic acid]", "values": [{"measurement": "solubility at 24 h", "setting": "[1]; aqueous buffer, Phosphate Buffer (0.1 M pH 7.4), 30°C, read-out: Solubility", "value": 0.011, "unit": "mM"}, {"measurement": "solubility at 24 h", "setting": "[1]; aqueous buffer, Phosphate Buffer (0.1 M pH 7.4), 40°C, read-out: Solubility in mg/mL", "value": 0.01, "unit": "mg/mL"}, {"measurement": "solubility at 24 h", "setting": "[1]; aqueous with cosolvent or surfactant or cyclodextrin, Tween 80, 30°C, read-out: Solubility", "value": 18, "unit": "mM"}, {"measurement": "solubility at 24 h", "setting": "[1]; aqueous with cosolvent or surfactant or cyclodextrin, Tween 80, 40°C, read-out: Solubility", "value": 34, "unit": "mM"}, {"measurement": "solubility at 24 h", "setting": "[1]; oil or lipid, Oleic rich oil, 30°C, read-out: Solubility", "value": 0.31, "unit": "mM"}, {"measurement": "solubility at 24 h", "setting": "[1]; oil or lipid, Oleic rich oil, 30°C, read-out: Solubility in mg/mL", "value": 0.13, "unit": "mg/mL"}, {"measurement": "solubility at 24 h", "setting": "[1]; oil or lipid, Oleic rich oil, 40°C, read-out: Solubility in mg/mL", "value": 0.1, "unit": "mg/mL"}, {"measurement": "solubility at 24 h", "setting": "[1]; organic solvent or mixture, Carbitol, 30°C, read-out: Solubility", "value": 83, "unit": "mM"}, {"measurement": "solubility at 24 h", "setting": "[1]; organic solvent or mixture, Carbitol, 30°C, read-out: Solubility in mg/mL", "value": 37, "unit": "mg/mL"}, {"measurement": "solubility at 24 h", "setting": "[1]; organic solvent or mixture, DMSO, 30°C, read-out: Solubility", "value": 299, "unit": "mM"}, {"measurement": "solubility at 24 h", "setting": "[1]; organic solvent or mixture, DMSO, 30°C, read-out: Solubility in mg/mL", "value": 131, "unit": "mg/mL"}, {"measurement": "solubility at 24 h", "setting": "[1]; organic solvent or mixture, DMSO, 40°C, read-out: Solubility", "value": 580, "unit": "mM"}, {"measurement": "solubility at 24 h", "setting": "[1]; organic solvent or mixture, DMSO, 40°C, read-out: Solubility in mg/mL", "value": 254, "unit": "mg/mL"}, {"measurement": "solubility at 24 h", "setting": "[1]; organic solvent or mixture, Ethanol, 30°C, read-out: Solubility", "value": 9, "unit": "mM"}, {"measurement": "solubility at 24 h", "setting": "[1]; organic solvent or mixture, Ethanol, 30°C, read-out: Solubility in mg/mL", "value": 4, "unit": "mg/mL"}, {"measurement": "solubility at 24 h", "setting": "[1]; organic solvent or mixture, Ethanol, 40°C, read-out: Solubility", "value": 32, "unit": "mM"}, {"measurement": "solubility at 24 h", "setting": "[1]; organic solvent or mixture, Ethanol, 40°C, read-out: Solubility in mg/mL", "value": 14, "unit": "mg/mL"}, {"measurement": "solubility at 24 h", "setting": "[1]; organic solvent or mixture, Glycerol, 30°C, read-out: Solubility", "value": 0.13, "unit": "mM"}, {"measurement": "solubility at 24 h", "setting": "[1]; organic solvent or mixture, Glycerol, 30°C, read-out: Solubility in mg/mL", "value": 0.06, "unit": "mg/mL"}, {"measurement": "solubility at 24 h", "setting": "[1]; organic solvent or mixture, Glycerol, 40°C, read-out: Solubility", "value": 0.41, "unit": "mM"}, {"measurement": "solubility at 24 h", "setting": "[1]; organic solvent or mixture, Glycerol, 40°C, read-out: Solubility in mg/mL", "value": 0.18, "unit": "mg/mL"}, {"measurement": "solubility at 24 h", "setting": "[1]; organic solvent or mixture, PEG200, 30°C, read-out: Solubility", "value": 195, "unit": "mM"}, {"measurement": "solubility at 24 h", "setting": "[1]; organic solvent or mixture, PEG200, 30°C, read-out: Solubility in mg/mL", "value": 85, "unit": "mg/mL"}, {"measurement": "solubility at 24 h", "setting": "[1]; organic solvent or mixture, PEG200, 40°C, read-out: Solubility", "value": 207, "unit": "mM"}, {"measurement": "solubility at 24 h", "setting": "[1]; organic solvent or mixture, PEG200, 40°C, read-out: Solubility in mg/mL", "value": 91, "unit": "mg/mL"}, {"measurement": "solubility at 24 h", "setting": "[1]; organic solvent or mixture, PEG300, 40°C, read-out: Solubility", "value": 254, "unit": "mM"}, {"measurement": "solubility at 24 h", "setting": "[1]; organic solvent or mixture, PEG300, 40°C, read-out: Solubility in mg/mL", "value": 111, "unit": "mg/mL"}, {"measurement": "solubility at 24 h", "setting": "[1]; organic solvent or mixture, PEG400, 30°C, read-out: Solubility", "value": 40, "unit": "mM"}, {"measurement": "solubility at 24 h", "setting": "[1]; organic solvent or mixture, PEG400, 30°C, read-out: Solubility in mg/mL", "value": 18, "unit": "mg/mL"}, {"measurement": "solubility at 24 h", "setting": "[1]; organic solvent or mixture, PEG400, 40°C, read-out: Solubility", "value": 57, "unit": "mM"}, {"measurement": "solubility at 24 h", "setting": "[1]; organic solvent or mixture, PEG400, 40°C, read-out: Solubility in mg/mL", "value": 25, "unit": "mg/mL"}, {"measurement": "solubility at 24 h", "setting": "[1]; organic solvent or mixture, Propylene glycol, 30°C, read-out: Solubility", "value": 9, "unit": "mM"}, {"measurement": "solubility at 24 h", "setting": "[1]; organic solvent or mixture, Propylene glycol, 30°C, read-out: Solubility in mg/mL", "value": 4, "unit": "mg/mL"}, {"measurement": "solubility at 24 h", "setting": "[1]; organic solvent or mixture, Propylene glycol, 40°C, read-out: Solubility", "value": 14, "unit": "mM"}, {"measurement": "solubility at 24 h", "setting": "[1]; organic solvent or mixture, Propylene glycol, 40°C, read-out: Solubility in mg/mL", "value": 6, "unit": "mg/mL"}, {"measurement": "solubility at 24 h", "setting": "[1]; organic solvent or mixture, Tween 80, 30°C, read-out: Solubility in mg/mL", "value": 8, "unit": "mg/mL"}, {"measurement": "solubility at 24 h", "setting": "[1]; organic solvent or mixture, Tween 80, 40°C, read-out: Solubility in mg/mL", "value": 15, "unit": "mg/mL"}, {"measurement": "solubility at 24 h", "setting": "[1]; organic solvent or mixture, such as Carbitol and polyethylene glycol (PEG), read-out: solubility in numerous organic liquids used in the formulation of drugs", "value": "> 20", "unit": "mg/mL"}, {"measurement": "adverse effects", "setting": "[2]", "value": "without observed adverse effects"}, {"measurement": "reduction in pain", "setting": "[2]", "value": "significant and rapid reduction in pain"}, {"measurement": "pain perception", "setting": "dogs with osteoarthritis", "value": "able to reduce pain perception"}]}]}
